ChEMBL document CHEMBL1142568, “Cytotoxic hydroxylated triterpene alcohol ferulates from rice bran” (J Nat Prod, 2005)

test system: MCF7; test: Cytotoxicity against human MCF7 cells after 72 hrs by MTT assay; type: functional, cell-based; details: MCF7, 72 h

SMILES	IC50
C=C(CC[C@@H](C)[C@H]1CC[C@@]2(C)[C@@H]3CC[C@H]4C(C)(C)[C@@H](OC(=O)/C=C/c5ccc(O)c(OC)c5)CC[C@@]45C[C@@]35CC[C@]12C)C(C)C	27 µM
COc1cc(/C=C/C(=O)O[C@H]2CC[C@]34C[C@]35CC[C@]3(C)[C@@H]([C@H](C)C/C=C\C(C)(C)O)CC[C@@]3(C)[C@@H]5CC[C@H]4C2(C)C)ccc1O	79 µM
C=C(C)[C@@H](O)CC[C@@H](C)[C@H]1CC[C@@]2(C)[C@@H]3CC[C@H]4C(C)(C)[C@@H](OC(=O)/C=C/c5ccc(O)c(OC)c5)CC[C@@]45C[C@@]35CC[C@]12C	283 µM
C=C(C)[C@H](O)CC[C@@H](C)[C@H]1CC[C@@]2(C)[C@@H]3CC[C@H]4C(C)(C)[C@@H](OC(=O)/C=C/c5ccc(O)c(OC)c5)CC[C@@]45C[C@@]35CC[C@]12C	42 µM
COc1cc(/C=C/C(=O)O[C@H]2CC[C@]34C[C@]35CC[C@]3(C)[C@@H]([C@H](C)CCC=C(C)C)CC[C@@]3(C)[C@@H]5CC[C@H]4C2(C)C)ccc1O [GAMMA ORYZANOL]	80 µM
